Test results: PMC5349910, “Discovery of BPR1K871, a quinazoline based, multi-kinase inhibitor for the treatment of AML and solid tumors: Rational design, synthesis, in vitro and in vivo evaluation” (Oncotarget, 2016)

Assays:
[1] = tested on: Detroit 551 (human normal skin fibroblast cells); assay: MTS cell viability assay, Detroit-551; assay type: cell-based; conditions: 72 h
Method: The MTS cell viability assay was conducted as previously described. The MOLM-13 human leukemia cell line was obtained from the German Resource Centre for Biological Material (DSMZ, Braunschweig, Germany); the MV4-11 cell line was purchased from the American Type Culture Collection (ATCC, Manassas, VA, USA). Both the leukemia cell lines were maintained in RPMI 1640 medium supplemented with 10% fetal bovine serum (FBS), 10 UmL^-1 penicillin, and […] streptomycin at 37°C and 5% CO2. The Detroit-551, COLO205, and Mia-PaCa2 cell lines were purchased from the American Type Culture Collection (ATCC, Manassas, VA, USA) and cultured according to instructions of ATCC. To determine cell viability after drug treatment, assay for MOLM-13 and MV4-11 was performed by seeding 10000 cells per well in a 96-well culture plate. Detroit-551, COLO205, and Mia-PaCa2 were seeded at density of 2500, 4000, and 3750 cells per well, respectively. After 16 h, cells were then treated with vehicle or various concentrations of compound in medium for 72 h. Viable cells were quantified using the MTS method (Promega, Madison, WI, USA) according to the manufacturer's recommended protocol. Results were determined by measuring the absorbance at 490 nm using a plate reader (Victor2; PerkinElmer, Shelton, CT, USA).

U937 cells = assay: Anti-proliferative activity, U937; assay type: cell-based; conditions: Homo sapiens, U-937; AML-FLT3-negative; supplement values ± SEM; read-out: U937 EC50
H2228 cells = assay: Anti-proliferative activity, H2228; assay type: cell-based; conditions: Homo sapiens, NCI-H2228; NSCLC-ALK; supplement values ± SEM; read-out: H2228 EC50
MESSA cells = assay: Anti-proliferative activity, MESSA; assay type: cell-based; conditions: Homo sapiens, MES-SA; Uterine Sarcoma
CL 1-5 cells = assay: Anti-proliferative activity, CL 1-5; assay type: cell-based; conditions: CL1-5; Human Lung Adenocarcinoma
[2] = In vivo pharmacokinetics evaluation in rats; set-up: species or system Male Sprague-Dawley rats; conditions: rat
Method: This study was approved by Institutional Animal Care and Use Committee of National Health Research Institutes. A solution of test compound (10 mg/mL) was prepared by dissolving appropriate amount of compound in a mixture of DMA/PEG400 (20/80, v/v). Male Sprague-Dawley rats, weighing 250–350 g each (8–10 weeks old), were obtained from BioLASCO, Ilan, Taiwan. […] The volume of dosing solution administered was adjusted according to the body weight recorded before dose administration. At 0 (prior to dosing), 2, 5, 15, and 30 min and at 1, 2, 4, 6, 8, and 24 h after dosing, a blood sample (∼150 μL) was collected from each animal via the jugular-vein cannula and stored in ice (0–4°C). Plasma was separated from the blood by centrifugation (14000 g for 15 min at 4°C in a Beckman model AllegraTM 6R centrifuge) and stored in a freezer (–60°C). All samples were analyzed for the test compound by LC-MS/MS (ABI3000). Data were acquired via multiple reactions monitoring. Plasma concentration data were analyzed with standard noncompartmental method with WinNonLin software program (version 1.1, Pharsight Corporation, CA).

[3] = Acute toxicity in ICR mice; assay type: in vivo; conditions: ICR mice (n = 3), iv, 50 mg/kg once a day for five days
From the text: Subsequently, based on the PK study, we evaluated the acute toxicity of BPR1K871 in ICR mice (n = 3) by iv administration.

CYP 1A2 = CYP 1A2 (Homo sapiens, UniProt P05177); assay: CYP inhibition assay, CYP 1A2; assay type: in vitro ADME
Chain of CYP 1A2 (P05177 whole entry): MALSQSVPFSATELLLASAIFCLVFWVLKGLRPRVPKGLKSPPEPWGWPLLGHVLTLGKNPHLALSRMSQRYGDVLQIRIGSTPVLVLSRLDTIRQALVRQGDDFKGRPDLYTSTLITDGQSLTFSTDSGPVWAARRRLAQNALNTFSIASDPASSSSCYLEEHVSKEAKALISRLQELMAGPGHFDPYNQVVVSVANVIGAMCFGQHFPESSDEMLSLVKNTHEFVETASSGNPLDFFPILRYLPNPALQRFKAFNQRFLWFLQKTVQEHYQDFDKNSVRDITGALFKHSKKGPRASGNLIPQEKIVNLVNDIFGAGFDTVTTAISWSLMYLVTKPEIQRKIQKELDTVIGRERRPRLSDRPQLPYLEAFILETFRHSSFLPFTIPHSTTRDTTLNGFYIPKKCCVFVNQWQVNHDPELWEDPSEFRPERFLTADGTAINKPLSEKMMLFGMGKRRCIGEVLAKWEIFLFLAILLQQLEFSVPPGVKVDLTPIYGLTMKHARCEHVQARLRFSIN

CYP 2C9 = CYP 2C9 (Homo sapiens, UniProt P11712); assay: CYP inhibition assay, CYP 2C9; assay type: in vitro ADME
Chain of CYP 2C9 (P11712 whole entry): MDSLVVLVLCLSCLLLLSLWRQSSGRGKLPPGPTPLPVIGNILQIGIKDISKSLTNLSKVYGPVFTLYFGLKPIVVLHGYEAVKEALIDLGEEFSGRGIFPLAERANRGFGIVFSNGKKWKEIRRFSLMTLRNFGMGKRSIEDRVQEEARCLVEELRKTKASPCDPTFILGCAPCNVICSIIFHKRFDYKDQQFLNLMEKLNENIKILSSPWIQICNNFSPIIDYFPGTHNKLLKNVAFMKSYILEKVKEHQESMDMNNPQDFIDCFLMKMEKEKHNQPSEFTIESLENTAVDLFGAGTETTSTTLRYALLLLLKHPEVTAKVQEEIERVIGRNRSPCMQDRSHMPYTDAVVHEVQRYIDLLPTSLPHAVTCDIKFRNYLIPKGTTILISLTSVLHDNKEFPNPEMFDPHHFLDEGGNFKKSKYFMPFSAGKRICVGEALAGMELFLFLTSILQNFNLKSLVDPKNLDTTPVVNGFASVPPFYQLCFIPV

[4] = Microsomal stability assay, human; assay type: in vitro ADME
AURKB = AURKB (Homo sapiens, UniProt Q96GD4); assay: KINOMEScan, AURKB; conditions: read-out: AURKB % control
Chain of AURKB (Q96GD4 whole entry): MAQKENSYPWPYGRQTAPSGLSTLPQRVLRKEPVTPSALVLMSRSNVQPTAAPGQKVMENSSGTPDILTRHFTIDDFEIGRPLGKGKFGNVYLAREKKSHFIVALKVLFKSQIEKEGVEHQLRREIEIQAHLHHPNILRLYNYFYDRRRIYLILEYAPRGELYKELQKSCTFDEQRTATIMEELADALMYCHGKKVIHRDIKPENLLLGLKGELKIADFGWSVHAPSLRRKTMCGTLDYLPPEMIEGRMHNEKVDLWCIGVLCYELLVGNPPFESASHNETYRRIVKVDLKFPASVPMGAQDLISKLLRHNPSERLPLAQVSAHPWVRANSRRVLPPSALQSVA

KIT^L576P = KIT^L576P (Homo sapiens, UniProt P10721, L576P); assay: KINOMEScan, KIT L576P; conditions: read-out: KIT^L576P % control
Chain of KIT^L576P (P10721 26-976 L576P): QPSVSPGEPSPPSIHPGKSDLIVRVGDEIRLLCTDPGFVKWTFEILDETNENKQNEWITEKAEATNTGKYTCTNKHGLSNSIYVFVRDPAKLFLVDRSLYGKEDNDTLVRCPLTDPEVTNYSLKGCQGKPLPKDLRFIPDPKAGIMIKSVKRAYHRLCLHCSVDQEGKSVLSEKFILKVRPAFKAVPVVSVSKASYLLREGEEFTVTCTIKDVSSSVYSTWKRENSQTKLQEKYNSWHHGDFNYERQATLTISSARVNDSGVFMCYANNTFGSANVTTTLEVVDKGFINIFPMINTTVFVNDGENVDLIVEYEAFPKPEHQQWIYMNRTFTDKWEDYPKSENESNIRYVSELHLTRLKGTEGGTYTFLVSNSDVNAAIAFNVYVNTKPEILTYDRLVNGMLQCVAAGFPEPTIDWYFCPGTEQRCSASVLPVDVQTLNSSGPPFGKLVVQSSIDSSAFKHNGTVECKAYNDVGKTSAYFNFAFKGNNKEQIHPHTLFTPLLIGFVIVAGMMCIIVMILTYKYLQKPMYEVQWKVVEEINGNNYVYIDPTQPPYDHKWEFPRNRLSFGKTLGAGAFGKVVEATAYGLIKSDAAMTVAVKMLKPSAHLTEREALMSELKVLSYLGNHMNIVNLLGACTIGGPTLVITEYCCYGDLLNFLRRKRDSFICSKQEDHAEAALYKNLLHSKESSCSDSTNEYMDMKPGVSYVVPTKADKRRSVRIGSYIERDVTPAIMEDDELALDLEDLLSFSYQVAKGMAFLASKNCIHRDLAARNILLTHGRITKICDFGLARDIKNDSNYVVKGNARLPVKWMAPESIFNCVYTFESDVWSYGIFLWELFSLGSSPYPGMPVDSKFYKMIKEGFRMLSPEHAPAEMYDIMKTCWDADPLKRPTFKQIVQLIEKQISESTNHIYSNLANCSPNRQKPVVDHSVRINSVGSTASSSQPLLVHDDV

FLT3^R834Q = FLT3^R834Q (Homo sapiens, UniProt P36888, R834Q); assay: KINOMEScan, FLT3 R834Q; conditions: read-out: FLT3^R834Q % control
ABL1^T315I = ABL1^T315I (Homo sapiens, UniProt P00519, T315I); assay: KINOMEScan, ABL1 T315I; conditions: read-out: ABL1^T315I % control
[5] = male, Sprague-Dawley, plasma, iv, 5 mg/kg

From the text for Mia-PaCa2 tumors: For this, COLO205 and Mia-PaCa2 xenograft models were established through inoculating nude mice subcutaneously with corresponding cancer cells. When the tumor size reached approximately 200 mm^3, the hydrochloride salt of BPR1K871 dissolved in the formulation was intravenously administered to suppress the growth of the subcutaneously xenografted tumors.
Nude mice (n = 8–9 per group) were inoculated subcutaneously with Mia-PaCa2 (1 × 10^6 per flank) or COLO205 cells (1 × 10^6 per flank). When the tumor size reached ∼200 mm^3, animals were grouped and treated with BPR1K871 at 20 mg/kg dose in a 2-week treatment period as indicated. […] Tumor volumes were measured and calculated with the formula length × width^2/2 after initiation of treatments. Tumor size and animal body weight were measured twice a week after tumor cell inoculation. The significant difference between drug treatment and vehicle control were analyzed using one-way ANOVA and Student-Newman-Keuls test. The level of statistical significance was set at P<0.05.

With `CN(C)CCCOc1ccc2c(NCCc3cnc(NC(=O)Nc4cccc(Cl)c4)s3)ncnc2c1` [BPR1K871, 1-(3-Chlorophenyl)-3-(5-(2-((7-(3-(dimethylamino)propoxy)quinazolin-4-yl)amino)ethyl)thiazol-2-yl)urea] the EC50 [1] was 4 µM, the EC50 (U937 cells) was 8.05 µM and the EC50 (H2228 cells) was 0.212 µM. It also gave an EC50 (MESSA cells) of 0.216 µM, an EC50 (CL 1-5 cells) of 1.39 µM and an AUC(0-inf) [2, 5] of 1.46 µg·h/mL. The clearance [2, 5] was 3.62 L/h/kg, the half-life [2, 5] was 23.5 h and the Vd ([2]; male, Sprague-Dawley, plasma, iv, 5 mg/kg, read-out: Vss) was 34.2 L/kg. The oral bioavailability [2] was “without oral bioavailability”, the “AUC (0-∞)” value ([2]; po, 20 mg/kg) was “not detectable” and the Cmax ([2]; po, 20 mg/kg) was “not detectable”. The Tmax ([2]; po, 20 mg/kg) was “not detectable”, the t1/2 ([2]; po, 20 mg/kg) was “not detectable” and the “acute toxicity (tolerability)” value [3] was “well tolerated”. For the same compound, the IC50 (CYP 1A2) was over 4 µM, the IC50 (CYP 2C9) was over 4 µM and the “microsomal stability, remaining at 30 min” value [4] was over 80%. The “TGI ± SD” value (Mia-PaCa2 tumors; Mia-PaCa2, 20 mg/kg iv once a day, days 1–5 and 8–12, day 29, n = 9) was 91 ± 10%, the body weight loss (Mia-PaCa2 tumors; Mia-PaCa2 model, 20 mg/kg iv) was at most 15% and the “mortality during the study” value (Mia-PaCa2 tumors; Mia-PaCa2 model, 20 mg/kg iv) was “no mice died”. The remaining binding at 1 µM (AURKB) was 0.2%, the remaining binding at 1 µM (KIT^L576P) was under 4% and the remaining binding at 1 µM (FLT3^R834Q) was under 5.2%. It also gave a remaining binding at 1 µM (ABL1^T315I) of under 4.4%.
